# Laboratory results reported in US6946076B2, “Removal of phosphate from water” (Dudley Mills Pty Ltd., priority 2001, dated 2005).
# Details: made by mixing lanthanum chloride, citric acid and sodium hydroxide solutions
substance,measurement,value
lanthanum hydroxy-citrate,content of clear stable solutions,up to 200 g/l
